The source of these data is ChEMBL document CHEMBL4330132, “5-Keto-3-cyano-2,4-diaminothiophenes as selective maternal embryonic leucine zipper kinase inhibitors” (Bioorg Med Chem Lett, 2019).

The target in experiment [1] is Tyrosine-protein kinase Mer (Homo sapiens) (UniProt Q12866). The experiment can be described thus: Binding affinity to wild-type human partial length MERTK (R557 to L884 residues) expressed in bacterial expression system assessed as residual binding level at 1 uM by Kinomescan method relative to control.
Sequence of Tyrosine-protein kinase Mer (Homo sapiens) (Q12866 whole entry, the tested form may be a part): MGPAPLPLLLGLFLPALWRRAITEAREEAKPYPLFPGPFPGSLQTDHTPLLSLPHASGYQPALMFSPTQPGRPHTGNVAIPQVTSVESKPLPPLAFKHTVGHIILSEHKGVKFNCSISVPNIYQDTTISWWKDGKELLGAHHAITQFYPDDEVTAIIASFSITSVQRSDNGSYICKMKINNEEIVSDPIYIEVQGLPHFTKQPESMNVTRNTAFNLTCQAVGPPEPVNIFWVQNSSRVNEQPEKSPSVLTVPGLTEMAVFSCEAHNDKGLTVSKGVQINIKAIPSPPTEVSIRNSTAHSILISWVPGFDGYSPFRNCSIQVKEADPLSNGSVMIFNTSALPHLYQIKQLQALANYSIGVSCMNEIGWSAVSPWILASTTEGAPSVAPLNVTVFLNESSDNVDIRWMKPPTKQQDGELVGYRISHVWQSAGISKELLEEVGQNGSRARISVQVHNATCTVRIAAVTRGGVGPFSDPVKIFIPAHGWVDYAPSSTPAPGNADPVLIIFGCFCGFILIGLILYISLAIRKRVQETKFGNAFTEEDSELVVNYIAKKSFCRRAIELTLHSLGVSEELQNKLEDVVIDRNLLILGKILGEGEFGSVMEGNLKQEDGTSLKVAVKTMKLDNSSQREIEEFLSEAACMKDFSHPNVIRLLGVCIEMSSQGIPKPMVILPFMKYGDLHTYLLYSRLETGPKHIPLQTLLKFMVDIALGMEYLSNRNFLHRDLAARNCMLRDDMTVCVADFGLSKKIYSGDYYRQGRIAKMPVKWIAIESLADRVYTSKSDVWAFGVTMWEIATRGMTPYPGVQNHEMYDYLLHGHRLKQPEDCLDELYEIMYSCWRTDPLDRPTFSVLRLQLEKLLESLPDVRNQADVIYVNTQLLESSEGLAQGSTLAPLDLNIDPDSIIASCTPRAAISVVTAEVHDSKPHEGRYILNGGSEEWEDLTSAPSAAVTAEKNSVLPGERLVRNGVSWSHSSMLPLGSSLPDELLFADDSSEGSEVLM
The target in experiment [2] is Mitogen-activated protein kinase kinase kinase 20 (Homo sapiens) (UniProt Q9NYL2). The experiment can be described thus: Binding affinity to wild-type human partial length ZAK (M1 to L331 residues) expressed in bacterial expression system assessed as residual binding level at 1 uM by Kinomescan method relative to control.
Sequence of Mitogen-activated protein kinase kinase kinase 20 (Homo sapiens) (Q9NYL2 2-800 limits assumed): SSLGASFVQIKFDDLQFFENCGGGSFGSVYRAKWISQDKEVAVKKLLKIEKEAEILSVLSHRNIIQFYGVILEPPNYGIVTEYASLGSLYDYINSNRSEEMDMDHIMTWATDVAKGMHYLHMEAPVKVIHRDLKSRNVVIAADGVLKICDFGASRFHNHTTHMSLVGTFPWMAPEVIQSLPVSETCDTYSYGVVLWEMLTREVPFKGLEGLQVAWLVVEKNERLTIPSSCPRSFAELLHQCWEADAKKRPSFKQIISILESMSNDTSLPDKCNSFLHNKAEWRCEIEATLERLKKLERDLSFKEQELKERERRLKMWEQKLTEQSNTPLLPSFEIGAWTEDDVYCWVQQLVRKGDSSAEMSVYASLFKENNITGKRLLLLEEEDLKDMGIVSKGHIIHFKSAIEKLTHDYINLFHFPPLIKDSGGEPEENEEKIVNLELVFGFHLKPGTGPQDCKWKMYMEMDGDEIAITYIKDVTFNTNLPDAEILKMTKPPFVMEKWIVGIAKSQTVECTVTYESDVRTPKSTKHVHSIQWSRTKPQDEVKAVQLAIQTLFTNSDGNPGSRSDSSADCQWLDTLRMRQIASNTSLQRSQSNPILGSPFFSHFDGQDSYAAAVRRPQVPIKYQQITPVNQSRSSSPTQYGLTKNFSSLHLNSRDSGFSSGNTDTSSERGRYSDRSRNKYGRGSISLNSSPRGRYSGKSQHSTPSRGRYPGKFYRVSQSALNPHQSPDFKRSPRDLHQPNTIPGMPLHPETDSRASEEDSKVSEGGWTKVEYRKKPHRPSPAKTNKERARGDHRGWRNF
Experiment [3] addresses Serine/threonine-protein kinase TAO3 (Homo sapiens) (UniProt Q9H2K8). The experiment can be described thus: Binding affinity to wild-type human partial length TAOK3 (M1 to T316 residues) expressed in mammalian expression system assessed as residual binding level at 1 uM by Kinomescan method relative to control.
In experiment [4] the target is Dual specificity mitogen-activated protein kinase kinase 7 (Homo sapiens) (UniProt O14733). The experiment can be described thus: Binding affinity to wild-type human full length MKK7 (M1 to R419 residues) expressed in mammalian expression system assessed as residual binding level at 1 uM by Kinomescan method relative to control.
Sequence of Dual specificity mitogen-activated protein kinase kinase 7 (Homo sapiens) (O14733 whole entry, the tested form may be a part): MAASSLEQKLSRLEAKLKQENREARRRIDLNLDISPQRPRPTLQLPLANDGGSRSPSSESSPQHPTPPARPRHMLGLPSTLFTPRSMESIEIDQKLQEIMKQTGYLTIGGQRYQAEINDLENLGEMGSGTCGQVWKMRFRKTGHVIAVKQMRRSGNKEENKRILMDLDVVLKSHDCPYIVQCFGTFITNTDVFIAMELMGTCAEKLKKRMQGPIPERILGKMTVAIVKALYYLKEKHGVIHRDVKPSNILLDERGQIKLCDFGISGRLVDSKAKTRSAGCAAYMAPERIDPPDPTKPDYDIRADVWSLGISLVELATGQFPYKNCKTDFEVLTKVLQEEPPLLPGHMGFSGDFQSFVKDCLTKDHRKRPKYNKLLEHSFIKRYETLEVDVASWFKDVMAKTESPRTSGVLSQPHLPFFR
Experiment [5] has as its target cAMP-dependent protein kinase catalytic subunit beta (Homo sapiens) (UniProt P22694). The experiment can be described thus: Binding affinity to wild-type human full length PKAC-beta (M1 to F351 residues) expressed in bacterial expression system assessed as residual binding level at 1 uM by Kinomescan method relative to control.
Experiment [6] addresses Mitogen-activated protein kinase kinase kinase 19 (Homo sapiens) (UniProt Q56UN5). Description: Binding affinity to wild-type human partial length YSK4 (T1019 to H1328 residues) expressed in mammalian expression system assessed as residual binding level at 1 uM by Kinomescan method relative to control.
In experiment [7] the test system is Tyrosine-protein kinase ABL1 (Homo sapiens), P00519 [Q252H]. The experiment can be described thus: Binding affinity to human non-phosphorylated ABL1 Q252H mutant (S229 to K512 residues) expressed in mammalian expression system assessed as residual binding level at 1 uM by Kinomescan method relative to control.
Experiment [8] concerns the target Uncharacterized serine/threonine-protein kinase SBK3 (Homo sapiens) (UniProt P0C264). The experiment can be described thus: Binding affinity to wild-type human partial length SgK110 (L22 to R329 residues) expressed in bacterial expression system assessed as residual binding level at 1 uM by Kinomescan method relative to control.
In experiment [9] the target is Tyrosine-protein kinase FRK (Homo sapiens) (UniProt P42685). Description: Binding affinity to wild-type human partial length FRK (A215 to F503 residues) expressed in bacterial expression system assessed as residual binding level at 1 uM by Kinomescan method relative to control.
In experiment [10] the target is Tyrosine-protein kinase receptor UFO (Homo sapiens) (UniProt P30530). The experiment can be described thus: Binding affinity to wild-type human partial length AXL (R497 to Y821 residues) expressed in bacterial expression system assessed as residual binding level at 1 uM by Kinomescan method relative to control.
Experiment [11] deals with Interleukin-1 receptor-associated kinase 3 (Homo sapiens) (UniProt Q9Y616). Description: Binding affinity to wild-type human partial length IRAK3 (V147 to E596 residues) expressed in bacterial expression system assessed as residual binding level at 1 uM by Kinomescan method relative to control.
Experiment [12] has as its target Serine/threonine-protein kinase PAK 3 (Homo sapiens) (UniProt O75914). The experiment can be described thus: Binding affinity to wild-type human full length PAK3 (M1 to R544 residues) expressed in bacterial expression system assessed as residual binding level at 1 uM by Kinomescan method relative to control.
Experiment [13] deals with Serine/threonine-protein kinase Chk2 (Homo sapiens) (UniProt O96017). Description: Binding affinity to wild-type human partial length CHEK2 (S253 to E574 residues) expressed in bacterial expression system assessed as residual binding level at 1 uM by Kinomescan method relative to control.
Sequence of Serine/threonine-protein kinase Chk2 (Homo sapiens) (O96017 whole entry, the tested form may be a part): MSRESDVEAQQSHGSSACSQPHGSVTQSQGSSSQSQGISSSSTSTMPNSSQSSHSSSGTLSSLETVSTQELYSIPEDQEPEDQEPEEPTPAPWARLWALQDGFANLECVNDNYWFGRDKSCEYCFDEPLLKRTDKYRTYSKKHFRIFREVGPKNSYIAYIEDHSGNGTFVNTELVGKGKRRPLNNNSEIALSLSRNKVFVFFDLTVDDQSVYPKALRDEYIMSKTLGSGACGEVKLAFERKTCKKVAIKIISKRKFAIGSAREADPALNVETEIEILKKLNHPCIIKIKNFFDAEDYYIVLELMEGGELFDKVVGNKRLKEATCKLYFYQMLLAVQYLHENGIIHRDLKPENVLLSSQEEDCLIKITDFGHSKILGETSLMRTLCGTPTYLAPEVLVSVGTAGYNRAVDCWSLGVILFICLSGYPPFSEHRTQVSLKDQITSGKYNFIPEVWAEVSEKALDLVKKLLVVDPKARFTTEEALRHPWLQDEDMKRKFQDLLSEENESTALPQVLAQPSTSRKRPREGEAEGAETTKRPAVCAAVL
Experiment [14] relates to Mast/stem cell growth factor receptor Kit (Homo sapiens), P10721 [A829P]. Description: Binding affinity to human partial length KIT A829P mutant (I571 to D952 residues) expressed in mammalian expression system assessed as residual binding level at 1 uM by Kinomescan method relative to control.
The target of experiment [15] is Rho-associated protein kinase 1 (Homo sapiens) (UniProt Q13464). The experiment can be described thus: Binding affinity to wild-type human partial length ROCK1 (M1 to R415 residues) expressed in mammalian expression system assessed as residual binding level at 1 uM by Kinomescan method relative to control.
Experiment [16] addresses Non-receptor tyrosine-protein kinase TYK2 (Homo sapiens) (UniProt P29597). The experiment can be described thus: Binding affinity to wild-type human partial length TYK2 JH1 catalytic domain (V877 to C1187 residues) expressed in mammalian expression system assessed as residual binding level at 1 uM by Kinomescan method relative to control.
Experiment [17] has as its target Cyclin-G-associated kinase (Homo sapiens) (UniProt O14976). Description: Binding affinity to wild-type human partial length GAK (G13 to Y338 residues) expressed in bacterial expression system assessed as residual binding level at 1 uM by Kinomescan method relative to control.
Experiment [18] has as its target Inhibitor of nuclear factor kappa-B kinase subunit epsilon (Homo sapiens) (UniProt Q14164). The experiment can be described thus: Binding affinity to wild-type human full length IKK-epsilon (M1 to V716 residues) expressed in mammalian expression system assessed as residual binding level at 1 uM by Kinomescan method relative to control.
The target of experiment [19] is Serine/threonine-protein kinase TAO2 (Homo sapiens) (UniProt Q9UL54). The experiment can be described thus: Binding affinity to wild-type human partial length TAOK2 (M1 to A320 residues) expressed in mammalian expression system assessed as residual binding level at 1 uM by Kinomescan method relative to control.
For experiment [20], the target named is Homeodomain-interacting protein kinase 4 (Homo sapiens) (UniProt Q8NE63). Description: Binding affinity to wild-type human partial length HIPK4 (M1 to V384 residues) expressed in bacterial expression system assessed as residual binding level at 1 uM by Kinomescan method relative to control.
Experiment [21] deals with Fibroblast growth factor receptor 4 (Homo sapiens) (UniProt P22455). Description: Binding affinity to wild-type human partial length FGFR4 (G402 to E713 residues) expressed in bacterial expression system assessed as residual binding level at 1 uM by Kinomescan method relative to control.
Experiment [22] deals with Vascular endothelial growth factor receptor 1 (Homo sapiens) (UniProt P17948). Description: Binding affinity to wild-type human partial length FLT1 (R781 to F1239 residues) expressed in bacterial expression system assessed as residual binding level at 1 uM by Kinomescan method relative to control.
Experiment [23] deals with Bone morphogenetic protein receptor type-1B (Homo sapiens) (UniProt O00238). Description: Binding affinity to wild-type human partial length BMPR1B (D178 to L502 residues) expressed in mammalian expression system assessed as residual binding level at 1 uM by Kinomescan method relative to control.
For experiment [24], the target named is Phosphatidylinositol 4-phosphate 5-kinase type-1 gamma (Homo sapiens) (UniProt O60331). The experiment can be described thus: Binding affinity to wild-type human partial length PIP5K1C (M1 to T668 residues) expressed in mammalian expression system assessed as residual binding level at 1 uM by Kinomescan method relative to control.
Sequence of Phosphatidylinositol 4-phosphate 5-kinase type-1 gamma (Homo sapiens) (O60331 whole entry, the tested form may be a part): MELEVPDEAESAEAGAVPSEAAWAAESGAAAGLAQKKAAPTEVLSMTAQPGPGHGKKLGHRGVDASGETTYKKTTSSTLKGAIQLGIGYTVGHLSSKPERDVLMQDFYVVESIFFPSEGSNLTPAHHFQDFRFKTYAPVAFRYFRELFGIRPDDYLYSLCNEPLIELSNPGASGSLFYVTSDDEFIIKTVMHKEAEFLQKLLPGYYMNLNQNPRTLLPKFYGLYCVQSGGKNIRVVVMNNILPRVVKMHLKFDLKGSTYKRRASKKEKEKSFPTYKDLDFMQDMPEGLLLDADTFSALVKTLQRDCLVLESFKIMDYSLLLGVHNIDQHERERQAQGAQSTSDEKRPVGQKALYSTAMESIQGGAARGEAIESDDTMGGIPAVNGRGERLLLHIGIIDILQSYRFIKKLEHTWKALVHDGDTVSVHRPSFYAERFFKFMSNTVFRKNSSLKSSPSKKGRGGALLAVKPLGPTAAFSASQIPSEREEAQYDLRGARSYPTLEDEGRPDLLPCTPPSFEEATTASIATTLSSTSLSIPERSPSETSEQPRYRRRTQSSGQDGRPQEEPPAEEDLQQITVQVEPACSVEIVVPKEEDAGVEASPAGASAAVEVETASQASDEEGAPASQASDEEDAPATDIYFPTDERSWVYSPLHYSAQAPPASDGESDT

Sequence of Cyclin-G-associated kinase (Homo sapiens) (O14976 whole entry, the tested form may be a part): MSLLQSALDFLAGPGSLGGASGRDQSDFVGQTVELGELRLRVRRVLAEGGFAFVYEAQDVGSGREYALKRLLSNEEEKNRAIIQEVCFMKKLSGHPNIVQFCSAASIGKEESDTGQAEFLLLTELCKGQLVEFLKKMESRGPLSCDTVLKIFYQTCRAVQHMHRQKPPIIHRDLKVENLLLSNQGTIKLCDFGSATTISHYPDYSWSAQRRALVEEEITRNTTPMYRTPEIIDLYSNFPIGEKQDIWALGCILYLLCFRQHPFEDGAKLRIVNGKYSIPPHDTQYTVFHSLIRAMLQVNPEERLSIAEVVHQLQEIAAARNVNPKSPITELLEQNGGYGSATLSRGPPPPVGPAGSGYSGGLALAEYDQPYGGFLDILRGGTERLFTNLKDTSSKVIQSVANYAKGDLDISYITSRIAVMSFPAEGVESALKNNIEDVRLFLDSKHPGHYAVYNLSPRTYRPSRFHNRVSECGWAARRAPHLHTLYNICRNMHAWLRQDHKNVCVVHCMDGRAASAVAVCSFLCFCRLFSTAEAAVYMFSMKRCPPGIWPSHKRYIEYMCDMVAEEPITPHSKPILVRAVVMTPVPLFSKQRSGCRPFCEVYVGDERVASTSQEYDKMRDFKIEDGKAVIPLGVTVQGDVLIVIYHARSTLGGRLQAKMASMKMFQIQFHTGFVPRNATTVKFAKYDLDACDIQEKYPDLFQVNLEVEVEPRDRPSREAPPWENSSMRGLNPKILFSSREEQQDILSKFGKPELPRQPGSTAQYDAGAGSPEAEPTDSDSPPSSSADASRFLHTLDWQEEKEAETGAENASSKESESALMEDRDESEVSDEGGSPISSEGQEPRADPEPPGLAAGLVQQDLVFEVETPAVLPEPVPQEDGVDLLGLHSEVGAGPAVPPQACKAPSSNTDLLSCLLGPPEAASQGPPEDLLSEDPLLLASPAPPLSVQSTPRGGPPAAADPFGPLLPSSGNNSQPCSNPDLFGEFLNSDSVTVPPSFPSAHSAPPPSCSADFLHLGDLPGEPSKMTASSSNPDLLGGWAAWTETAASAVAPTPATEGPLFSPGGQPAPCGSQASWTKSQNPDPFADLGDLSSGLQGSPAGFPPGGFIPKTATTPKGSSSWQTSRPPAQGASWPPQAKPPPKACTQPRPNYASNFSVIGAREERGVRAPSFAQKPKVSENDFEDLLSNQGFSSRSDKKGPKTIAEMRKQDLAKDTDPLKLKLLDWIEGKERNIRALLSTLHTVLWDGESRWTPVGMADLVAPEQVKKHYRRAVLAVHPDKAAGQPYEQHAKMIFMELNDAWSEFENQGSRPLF

For the compound `CC(C)Nc1sc(C(=O)c2ccc(Cl)s2)c(N)c1C#N`, the Activity in experiment [1] amounted to 100%; in experiment [2], 95%; in experiment [3], 100%; in experiment [4] it was 100%; in experiment [5], 100%; in experiment [6] it was 100%. The Activity amounted to 100% in experiment [7]; 100% in [8]; 76% in experiment [9]; 89% in experiment [10]; 86% in [11]; 95% in experiment [12]. Moreover, the Activity in experiment [13] worked out at 84%; in [14], 66%; in experiment [15], 100%; in [16], 100%; in experiment [17], 24%; in [18] it was 100%. For the same compound, the Activity was found to be 100% in experiment [19]; 80% in experiment [20]; 74% in experiment [21]; 76% in experiment [22]; 94% in experiment [23]; 86% in [24].
